Measurements reported in US20040019022A1, “Use of 2,3 alkylcarbonyloxybenzoic acids, derivatives and analogues therefrom in the treatment of tissue and cellular dysfunction, damage and injury in mammals” (priority 2002, published 2004).

Experiments:
[1] = test system: guinea pigs administered aerosolized LPS; assay: Aerosolized LPS exposure in guinea pigs, bronchoalveolar lavage (BAL) 24 h after LPS; type: in vivo; settings: guinea pig
Experimental: The potential therapeutic effect of 2,3-alkylcarbonyloxybenzoic acids is exemplified by data generated in the study of 2,3-diacetoxybenzoic acid in guinea pigs. 2,3-diacetoxybenzoic acid was administered via intra-peritoneal injection to guinea pigs administered aerosolized LPS. Each animal was treated with 150 mg/kg of 2,3-diacetoxybenzoic acid or vehicle 1 hour prior to and 4 hours following LPS administration. Twenty four hours following administration of LPS, bronchoalveolar lavage (BAL) was performed. Intra-peritoneal administration of 2,3-diacetoxybenzoic acid appeared to have no effect on LPS-induced neutrophil recruitment into the lung. However, 2,3-diacetoxybenzoic acid treatment did produce a statistically significant reduction in albumin leakage (44%), a component of LPS-induced edema formation indicating a decrease in lung vascular permeability.

[2] = test system: rat model of cecal ligation and perforation (CLP)-induced sepsis; assay: Awake rat model of cecal ligation and perforation (CLP)-induced sepsis, acute lung injury; type: in vivo
Text: An awake rat model of cecal ligation and perforation (CLP)-induced sepsis was employed to examine the therapeutic effect of 2,3-diacetoxybenzoic acid in sepsis induced acute lung injury. Oxidative stress resulting in increased lung permeability is characteristic of the onset and progression of acute lung injury in this model. […] 2,3-Diacetoxybenzoic acid treated animals appeared to have improvement in sepsis-associated symptoms such as lethargy, diarrhea, anorexia, and abdomenal distention.

[3] = 150 mg/kg i.p. 1 h prior to and 4 h post LPS, BAL 24 h after LPS, mean ± SEM, n = 5
[4] = 2.5 mg/kg/h continuous infusion
[5] = 2.5 mg/kg/h continuous infusion from 1 h to 24 h after induction of sepsis, 24 hours, mean ± SEM

SMILES: CC(=O)Oc1cccc(C(=O)O)c1OC(C)=O [DABA, 2,3-diacetoxybenzoic acid]
- effect on LPS-induced neutrophil recruitment into the lung ([1]; 150 mg/kg i.p. 1 h prior to and 4 h following LPS): no effect
- reduction in albumin leakage ([1]; 150 mg/kg i.p. 1 h prior to and 4 h following LPS, versus vehicle, statistically significant): 44%
- Albumin (BAL fluid) [1, 3]: 605 ± 78 μg/mL BALF
- Neutrophil (BAL fluid) [1, 3]: 80 ± 11 ×10^6/mL BALF
- Total Cell (BAL fluid) [1, 3]: 112 ± 14 ×10^6/mL BALF
- body temperature [2, 4]: normalized
- cardiac output [2, 4]: normalized
- respiratory rate [2, 4]: normalized
- sepsis-associated symptoms such as lethargy, diarrhea, anorexia, and abdomenal distention [2, 4]: improvement
- lung microvascular permeability increases ([2]; 2.5 mg/kg/h continuous infusion from 1 h to 24 h after induction of sepsis): reduced
- Systemic WBC, 1 hour ([2]; 2.5 mg/kg/h continuous infusion from 1 h to 24 h after induction of sepsis, 1 hour, mean ± SEM): 6.7 ± 1.1 ×10^9/liter
- BAL WBC, 24 hours [2, 5]: 0.04 ± 0.02 ×10^9/liter
- BAL protein, 24 hours [2, 5]: 1.45 ± 1.73 mg/dL
- Systemic WBC, 24 hours [2, 5]: 3.6 ± 1.4 ×10^9/liter
